From ChEMBL document CHEMBL1201862, “PubChem BioAssay data set” (2004)
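These data come from cells grown in 96-well plates and exposed to compound for 48 hours at five concentrations. The concentration for 50% growth inhibition is given as GI50.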 Activity calls are given as the source filed them. Rule as the data show it: active = GI50 up to about 1.1 µM and inactive = higher.

How the values were obtained:
Experiment in all cases: DTP human tumour cell line panel, 48 h
[1] = tested on: CCRF-CEM
[2] = tested on: MDA-MB-231
[3] = tested on: SF-295
[4] = tested on: HCT-15
[5] = tested on: UACC-62
[6] = tested on: PC-3
[7] = tested on: NCI-H460
[8] = tested on: OVCAR-4
[9] = tested on: COLO 205
[10] = tested on: MDA-N
[11] = tested on: LOX IMVI
[12] = tested on: NCI-H226
[13] = tested on: SF-539
[14] = tested on: UACC-257
[15] = tested on: EKVX
[16] = tested on: CAKI-1
[17] = tested on: MCF7
[18] = tested on: HT-29

CN(C)c1ccc(C(Cc2ccccc2)C2NC(=S)NC2=O)cc1 (stereo not drawn)
GI50 [1]: > 100 µM (inactive)
GI50 [2]: > 100 µM (inactive)
GI50 [3]: > 95.7 µM (inactive)
GI50 [4]: > 100 µM
GI50 [5]: 67 µM (inactive)
GI50 [6]: > 100 µM (inactive)
GI50 [7]: 99.8 µM (inactive)
GI50 [8]: 28.4 µM (inactive)
GI50 [9]: > 100 µM (inactive)
GI50 [10]: > 100 µM (inactive)
GI50 [11]: > 100 µM (inactive)
GI50 [12]: > 100 µM (inactive)
GI50 [13]: 47.8 µM (inactive)
GI50 [14]: > 100 µM (inactive)
GI50 [15]: > 100 µM (inactive)
GI50 [16]: > 100 µM (inactive)
GI50 [17]: > 100 µM (inactive)
GI50 [18]: > 83.6 µM (inactive)

c1ccc2[nH]c3nc4ccccc4c-3cc2c1
GI50 [1]: 0.197 µM (active)
GI50 [2]: 1.24 µM (inactive)
GI50 [3]: 0.5 µM (active)
GI50 [4]: 0.229 µM
GI50 [5]: 0.632 µM (active)
GI50 [6]: 0.232 µM (active)
GI50 [7]: 0.128 µM (active)
GI50 [8]: 1.03 µM (active)
GI50 [9]: 0.207 µM (active)
GI50 [10]: 0.641 µM (active)
GI50 [11]: 0.18 µM (active)
GI50 [12]: 1.02 µM (active)
GI50 [13]: 0.367 µM (active)
GI50 [14]: 0.637 µM (active)
GI50 [15]: 0.395 µM (active)
GI50 [16]: 0.524 µM (active)
GI50 [17]: 0.304 µM (active)
GI50 [18]: < 0.0303 µM (active)

CCc1nc(N)nc(N)c1-c1ccc(Cc2ccccc2)c([N+](=O)[O-])c1
GI50 [1]: < 0.01 µM (active)
GI50 [2]: 38.3 µM (inactive)
GI50 [3]: 0.0116 µM (active)
GI50 [4]: < 0.01 µM
GI50 [5]: < 0.0111 µM (active)
GI50 [6]: < 0.0353 µM (active)
GI50 [7]: < 0.01 µM (active)
GI50 [8]: 16.6 µM (inactive)
GI50 [9]: 0.561 µM (active)
GI50 [10]: < 0.046 µM (active)
GI50 [11]: < 0.01 µM (active)
GI50 [12]: 27.6 µM (inactive)
GI50 [13]: 0.0475 µM (active)
GI50 [14]: 23.6 µM (inactive)
GI50 [15]: 5.53 µM (inactive)
GI50 [16]: 0.0183 µM (active)
GI50 [17]: 0.0484 µM (active)
GI50 [18]: < 0.01 µM (active)

Cc1cc(C)c(P2C(=C(O[Si](C(C)C)(C(C)C)C(C)C)C(C)(C)C)C2(c2ccccc2)c2ccccc2)c(C)c1 (stereo not drawn)
GI50 [1]: > 100 µM (inactive)
GI50 [2]: > 100 µM (inactive)
GI50 [3]: > 100 µM (inactive)
GI50 [4]: > 100 µM
GI50 [5]: > 100 µM (inactive)
GI50 [6]: 57.9 µM (inactive)
GI50 [7]: > 100 µM (inactive)
GI50 [8]: > 100 µM (inactive)
GI50 [9]: > 100 µM (inactive)
GI50 [10]: > 100 µM (inactive)
GI50 [11]: > 100 µM (inactive)
GI50 [12]: > 100 µM (inactive)
GI50 [13]: > 100 µM (inactive)
GI50 [14]: > 100 µM (inactive)
GI50 [15]: > 100 µM (inactive)
GI50 [16]: > 100 µM (inactive)
GI50 [17]: > 100 µM (inactive)
GI50 [18]: > 100 µM (inactive)

CCOC(=O)C(NS(=O)(=O)c1ccccc1)(C(F)(F)F)P(=O)(OCC(C)C)OCC(C)C (stereo not drawn)
GI50 [1]: > 100 µM (inactive)
GI50 [2]: > 100 µM (inactive)
GI50 [3]: > 100 µM (inactive)
GI50 [4]: > 100 µM
GI50 [5]: > 100 µM (inactive)
GI50 [6]: > 100 µM (inactive)
GI50 [7]: > 100 µM (inactive)
GI50 [8]: > 100 µM (inactive)
GI50 [9]: > 100 µM (inactive)
GI50 [10]: > 100 µM (inactive)
GI50 [11]: > 100 µM (inactive)
GI50 [12]: > 100 µM (inactive)
GI50 [13]: > 100 µM (inactive)
GI50 [14]: > 100 µM (inactive)
GI50 [15]: > 100 µM (inactive)
GI50 [16]: > 100 µM (inactive)
GI50 [17]: > 100 µM (inactive)
GI50 [18]: > 100 µM (inactive)

O=c1c2cc([N+](=O)[O-])ccc2n2n1Cc1ccccc1C2
GI50 [1]: > 100 µM (inactive)
GI50 [2]: > 100 µM (inactive)
GI50 [3]: > 100 µM (inactive)
GI50 [4]: > 100 µM
GI50 [5]: > 100 µM (inactive)
GI50 [6]: 32.4 µM (inactive)
GI50 [7]: 40.6 µM (inactive)
GI50 [8]: > 100 µM (inactive)
GI50 [9]: > 100 µM (inactive)
GI50 [10]: > 100 µM (inactive)
GI50 [11]: > 100 µM (inactive)
GI50 [12]: > 100 µM (inactive)
GI50 [13]: > 100 µM (inactive)
GI50 [14]: > 100 µM (inactive)
GI50 [15]: 31.5 µM (inactive)
GI50 [16]: 75 µM (inactive)
GI50 [17]: > 100 µM (inactive)
GI50 [18]: > 100 µM (inactive)
